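Each compound was tested at five concentrations against cells in 96-well plates for 48 hours. TGI marks complete inhibition of growth.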
Key:
Assay in all cases: NCI tumour cell line growth inhibition, 48 h
786-0 renal = system: 786-0 renal
A549 NSCLC = system: A549 NSCLC
ACHN renal = system: ACHN renal
COLO 205 colon = system: COLO 205 colon
DLD-1 colon = system: DLD-1 colon
DMS 114 small cell lung = system: DMS 114 small cell lung
DMS 273 small cell lung = system: DMS 273 small cell lung
EKVX NSCLC = system: EKVX NSCLC
HCC-2998 colon = system: HCC-2998 colon
HCT-116 colon = system: HCT-116 colon
HCT-15 colon = system: HCT-15 colon
HOP-18 NSCLC = system: HOP-18 NSCLC
HOP-62 NSCLC = system: HOP-62 NSCLC
HOP-92 NSCLC = system: HOP-92 NSCLC
HT29 colon = system: HT29 colon
IGROV1 ovarian = system: IGROV1 ovarian
KM12 colon = system: KM12 colon
KM20L2 colon = system: KM20L2 colon
LOX IMVI melanoma = system: LOX IMVI melanoma
LXFL 529 NSCLC = system: LXFL 529 NSCLC
M14 melanoma = system: M14 melanoma
M19-MEL melanoma = system: M19-MEL melanoma
MALME-3M melanoma = system: MALME-3M melanoma
MOLT-4 leukemia = system: MOLT-4 leukemia
NCI-H226 lung = system: NCI-H226 lung
NCI-H23 lung = system: NCI-H23 lung
NCI-H460 lung = system: NCI-H460 lung
NCI-H522 lung = system: NCI-H522 lung
OVCAR-3 ovarian = system: OVCAR-3 ovarian
OVCAR-5 ovarian = system: OVCAR-5 ovarian
OVCAR-8 ovarian = system: OVCAR-8 ovarian
RPMI-8226 leukemia = system: RPMI-8226 leukemia
RXF 393 renal = system: RXF 393 renal
SF-268 CNS = system: SF-268 CNS
SF-295 CNS = system: SF-295 CNS
SF-539 CNS = system: SF-539 CNS
SK-MEL-2 melanoma = system: SK-MEL-2 melanoma
SK-MEL-28 melanoma = system: SK-MEL-28 melanoma
SK-MEL-5 melanoma = system: SK-MEL-5 melanoma
SK-OV-3 ovarian = system: SK-OV-3 ovarian
SN12C renal = system: SN12C renal
SNB-19 CNS = system: SNB-19 CNS
SNB-75 CNS = system: SNB-75 CNS
SNB-78 CNS = system: SNB-78 CNS
SR leukemia = system: SR leukemia
SW-620 colon = system: SW-620 colon
TK-10 renal = system: TK-10 renal
U251 CNS = system: U251 CNS
UACC-257 melanoma = system: UACC-257 melanoma
UACC-62 melanoma = system: UACC-62 melanoma
UO-31 renal = system: UO-31 renal
XF 498 CNS = system: XF 498 CNS
A498 renal = system: A498 renal
BT-549 breast = system: BT-549 breast
CCRF-CEM leukemia = system: CCRF-CEM leukemia
DU-145 prostate = system: DU-145 prostate
HL-60(TB) leukemia = system: HL-60(TB) leukemia
HS 578T breast = system: HS 578T breast
K-562 leukemia = system: K-562 leukemia
MCF7 breast = system: MCF7 breast
MDA-MB-231 breast = system: MDA-MB-231 breast
MDA-MB-435 = system: MDA-MB-435
MDA-N = system: MDA-N
NCI/ADR-RES ovarian = system: NCI/ADR-RES ovarian
OVCAR-4 ovarian = system: OVCAR-4 ovarian
PC-3 prostate = system: PC-3 prostate
T-47D breast = system: T-47D breast

COc1ccc(-c2ccccc2)c(N/N=C2\CCCNC2=O)c1
TGI (786-0 renal): > 100 µM
TGI (A549 NSCLC): 27 µM
TGI (ACHN renal): > 100 µM
TGI (COLO 205 colon): > 100 µM
TGI (DLD-1 colon): > 100 µM
TGI (DMS 114 small cell lung): > 100 µM
TGI (DMS 273 small cell lung): > 100 µM
TGI (EKVX NSCLC): > 100 µM
TGI (HCC-2998 colon): > 100 µM
TGI (HCT-116 colon): 25.8 µM
TGI (HCT-15 colon): > 100 µM
TGI (HOP-18 NSCLC): > 100 µM
TGI (HOP-62 NSCLC): 87.1 µM
TGI (HOP-92 NSCLC): > 100 µM
TGI (HT29 colon): > 100 µM
TGI (IGROV1 ovarian): > 100 µM
TGI (KM12 colon): > 100 µM
TGI (KM20L2 colon): > 100 µM
TGI (LOX IMVI melanoma): > 100 µM
TGI (LXFL 529 NSCLC): > 100 µM
TGI (M14 melanoma): > 100 µM
TGI (M19-MEL melanoma): > 100 µM
TGI (MALME-3M melanoma): > 100 µM
TGI (MOLT-4 leukemia): > 100 µM
TGI (NCI-H226 lung): > 100 µM
TGI (NCI-H23 lung): > 100 µM
TGI (NCI-H460 lung): > 100 µM
TGI (NCI-H522 lung): > 100 µM
TGI (OVCAR-3 ovarian): > 100 µM
TGI (OVCAR-5 ovarian): > 100 µM
TGI (OVCAR-8 ovarian): > 100 µM
TGI (RPMI-8226 leukemia): > 100 µM
TGI (RXF 393 renal): 27.5 µM
TGI (SF-268 CNS): > 100 µM
TGI (SF-295 CNS): > 100 µM
TGI (SF-539 CNS): > 100 µM
TGI (SK-MEL-2 melanoma): > 100 µM
TGI (SK-MEL-28 melanoma): > 100 µM
TGI (SK-MEL-5 melanoma): > 100 µM
TGI (SK-OV-3 ovarian): > 100 µM
TGI (SN12C renal): > 100 µM
TGI (SNB-19 CNS): > 100 µM
TGI (SNB-75 CNS): > 100 µM
TGI (SNB-78 CNS): > 100 µM
TGI (SR leukemia): > 100 µM
TGI (SW-620 colon): > 100 µM
TGI (TK-10 renal): > 100 µM
TGI (U251 CNS): > 100 µM
TGI (UACC-257 melanoma): > 100 µM
TGI (UACC-62 melanoma): > 100 µM
TGI (UO-31 renal): > 100 µM
TGI (XF 498 CNS): 87.7 µM

COc1ccc(NC(=O)CSc2nnc(-c3ccc(N=Cc4ccc(Cl)cc4)cc3)o2)cc1
TGI (786-0 renal): > 100 µM
TGI (A498 renal): > 100 µM
TGI (A549 NSCLC): > 100 µM
TGI (ACHN renal): > 86.9 µM
TGI (BT-549 breast): > 100 µM
TGI (CCRF-CEM leukemia): > 82.7 µM
TGI (COLO 205 colon): 44.9 µM
TGI (DMS 114 small cell lung): 80.1 µM
TGI (DMS 273 small cell lung): 79.6 µM
TGI (DU-145 prostate): > 100 µM
TGI (EKVX NSCLC): > 100 µM
TGI (HCC-2998 colon): > 100 µM
TGI (HCT-116 colon): > 49.5 µM
TGI (HCT-15 colon): 29.1 µM
TGI (HL-60(TB) leukemia): > 48.8 µM
TGI (HOP-18 NSCLC): 68.1 µM
TGI (HOP-62 NSCLC): > 88.6 µM
TGI (HOP-92 NSCLC): 71.4 µM
TGI (HS 578T breast): > 100 µM
TGI (HT29 colon): > 100 µM
TGI (IGROV1 ovarian): > 100 µM
TGI (K-562 leukemia): > 100 µM
TGI (KM12 colon): > 80.9 µM
TGI (KM20L2 colon): > 100 µM
TGI (LOX IMVI melanoma): 31.9 µM
TGI (LXFL 529 NSCLC): > 100 µM
TGI (M14 melanoma): > 96.3 µM
TGI (M19-MEL melanoma): 68.1 µM
TGI (MALME-3M melanoma): > 100 µM
TGI (MCF7 breast): > 100 µM
TGI (MDA-MB-231 breast): > 100 µM
TGI (MDA-MB-435): > 100 µM
TGI (MDA-N): > 100 µM
TGI (MOLT-4 leukemia): > 70.2 µM
TGI (NCI-H226 lung): > 76.3 µM
TGI (NCI-H23 lung): > 93.5 µM
TGI (NCI-H460 lung): > 100 µM
TGI (NCI-H522 lung): 96.6 µM
TGI (NCI/ADR-RES ovarian): > 100 µM
TGI (OVCAR-3 ovarian): 73.2 µM
TGI (OVCAR-4 ovarian): > 100 µM
TGI (OVCAR-5 ovarian): > 100 µM
TGI (OVCAR-8 ovarian): > 100 µM
TGI (PC-3 prostate): > 100 µM
TGI (RPMI-8226 leukemia): > 80.7 µM
TGI (RXF 393 renal): > 100 µM
TGI (SF-268 CNS): > 64.7 µM
TGI (SF-295 CNS): > 100 µM
TGI (SK-MEL-2 melanoma): 45.8 µM
TGI (SK-MEL-28 melanoma): > 100 µM
TGI (SK-MEL-5 melanoma): > 100 µM
TGI (SK-OV-3 ovarian): > 100 µM
TGI (SN12C renal): 56.8 µM
TGI (SNB-19 CNS): > 100 µM
TGI (SNB-75 CNS): > 86.7 µM
TGI (SNB-78 CNS): 77.3 µM
TGI (SR leukemia): 61.2 µM
TGI (SW-620 colon): > 100 µM
TGI (T-47D breast): > 100 µM
TGI (TK-10 renal): > 100 µM
TGI (U251 CNS): > 100 µM
TGI (UACC-257 melanoma): > 96.7 µM
TGI (UACC-62 melanoma): > 100 µM
TGI (UO-31 renal): > 100 µM
TGI (XF 498 CNS): 59.2 µM

Reference: PubChem BioAssay (NCI)
